Experimental data published in publication PMC4501059, “Responding to the challenge of untreatable gonorrhea: ETX0914, a first-in-class agent with a distinct mechanism-of-action against bacterial Type II topoisomerases” (Scientific Reports, 2015).
In brackets after ≈: the same amount, converted by molar mass. Like-named read-outs stand apart in the source and are kept apart here.

How the values were obtained:
S. pneumoniae ATCC49619 = test: MIC (CLSI broth microdilution); format: cell-based
Ito/Kv4.3 = target: T1, Ito/Kv4.3 (Homo sapiens, UniProt Q9UK17); test: In vitro ion channel function; format: cell-based; details: Ito/Kv4.3 IC50, Transient outward K^+ early repolarization
T1 sequence (Q9UK17 1-655): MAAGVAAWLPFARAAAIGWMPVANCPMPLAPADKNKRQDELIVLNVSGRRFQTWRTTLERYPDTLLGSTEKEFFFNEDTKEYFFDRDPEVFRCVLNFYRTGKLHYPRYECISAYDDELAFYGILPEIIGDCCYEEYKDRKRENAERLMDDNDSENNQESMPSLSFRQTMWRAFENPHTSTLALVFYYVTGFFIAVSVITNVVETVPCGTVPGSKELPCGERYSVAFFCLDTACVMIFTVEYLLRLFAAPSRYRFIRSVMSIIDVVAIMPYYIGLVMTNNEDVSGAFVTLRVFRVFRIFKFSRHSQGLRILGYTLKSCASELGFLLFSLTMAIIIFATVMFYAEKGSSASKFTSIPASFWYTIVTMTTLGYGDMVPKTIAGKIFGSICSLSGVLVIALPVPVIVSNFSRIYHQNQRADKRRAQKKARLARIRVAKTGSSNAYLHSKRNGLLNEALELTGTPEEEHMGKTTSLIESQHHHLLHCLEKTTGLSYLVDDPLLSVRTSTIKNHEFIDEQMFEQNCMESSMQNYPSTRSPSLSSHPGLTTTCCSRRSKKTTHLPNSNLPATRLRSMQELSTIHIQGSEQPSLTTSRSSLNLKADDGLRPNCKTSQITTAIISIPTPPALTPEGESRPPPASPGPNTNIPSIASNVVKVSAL
Excerpt: (§1) Supplement srep11827-s1.doc, table 3 | column: Table S2: In vitro ion channel function IC50 (µM)

hNav1.5 = hNav1.5 (Homo sapiens, UniProt Q14524); test: In vitro ion channel function; format: cell-based; details: hNav1.5 IC50, Initiation of cardiac action potential/QRS interval
Sequence of hNav1.5 (Q14524 whole entry): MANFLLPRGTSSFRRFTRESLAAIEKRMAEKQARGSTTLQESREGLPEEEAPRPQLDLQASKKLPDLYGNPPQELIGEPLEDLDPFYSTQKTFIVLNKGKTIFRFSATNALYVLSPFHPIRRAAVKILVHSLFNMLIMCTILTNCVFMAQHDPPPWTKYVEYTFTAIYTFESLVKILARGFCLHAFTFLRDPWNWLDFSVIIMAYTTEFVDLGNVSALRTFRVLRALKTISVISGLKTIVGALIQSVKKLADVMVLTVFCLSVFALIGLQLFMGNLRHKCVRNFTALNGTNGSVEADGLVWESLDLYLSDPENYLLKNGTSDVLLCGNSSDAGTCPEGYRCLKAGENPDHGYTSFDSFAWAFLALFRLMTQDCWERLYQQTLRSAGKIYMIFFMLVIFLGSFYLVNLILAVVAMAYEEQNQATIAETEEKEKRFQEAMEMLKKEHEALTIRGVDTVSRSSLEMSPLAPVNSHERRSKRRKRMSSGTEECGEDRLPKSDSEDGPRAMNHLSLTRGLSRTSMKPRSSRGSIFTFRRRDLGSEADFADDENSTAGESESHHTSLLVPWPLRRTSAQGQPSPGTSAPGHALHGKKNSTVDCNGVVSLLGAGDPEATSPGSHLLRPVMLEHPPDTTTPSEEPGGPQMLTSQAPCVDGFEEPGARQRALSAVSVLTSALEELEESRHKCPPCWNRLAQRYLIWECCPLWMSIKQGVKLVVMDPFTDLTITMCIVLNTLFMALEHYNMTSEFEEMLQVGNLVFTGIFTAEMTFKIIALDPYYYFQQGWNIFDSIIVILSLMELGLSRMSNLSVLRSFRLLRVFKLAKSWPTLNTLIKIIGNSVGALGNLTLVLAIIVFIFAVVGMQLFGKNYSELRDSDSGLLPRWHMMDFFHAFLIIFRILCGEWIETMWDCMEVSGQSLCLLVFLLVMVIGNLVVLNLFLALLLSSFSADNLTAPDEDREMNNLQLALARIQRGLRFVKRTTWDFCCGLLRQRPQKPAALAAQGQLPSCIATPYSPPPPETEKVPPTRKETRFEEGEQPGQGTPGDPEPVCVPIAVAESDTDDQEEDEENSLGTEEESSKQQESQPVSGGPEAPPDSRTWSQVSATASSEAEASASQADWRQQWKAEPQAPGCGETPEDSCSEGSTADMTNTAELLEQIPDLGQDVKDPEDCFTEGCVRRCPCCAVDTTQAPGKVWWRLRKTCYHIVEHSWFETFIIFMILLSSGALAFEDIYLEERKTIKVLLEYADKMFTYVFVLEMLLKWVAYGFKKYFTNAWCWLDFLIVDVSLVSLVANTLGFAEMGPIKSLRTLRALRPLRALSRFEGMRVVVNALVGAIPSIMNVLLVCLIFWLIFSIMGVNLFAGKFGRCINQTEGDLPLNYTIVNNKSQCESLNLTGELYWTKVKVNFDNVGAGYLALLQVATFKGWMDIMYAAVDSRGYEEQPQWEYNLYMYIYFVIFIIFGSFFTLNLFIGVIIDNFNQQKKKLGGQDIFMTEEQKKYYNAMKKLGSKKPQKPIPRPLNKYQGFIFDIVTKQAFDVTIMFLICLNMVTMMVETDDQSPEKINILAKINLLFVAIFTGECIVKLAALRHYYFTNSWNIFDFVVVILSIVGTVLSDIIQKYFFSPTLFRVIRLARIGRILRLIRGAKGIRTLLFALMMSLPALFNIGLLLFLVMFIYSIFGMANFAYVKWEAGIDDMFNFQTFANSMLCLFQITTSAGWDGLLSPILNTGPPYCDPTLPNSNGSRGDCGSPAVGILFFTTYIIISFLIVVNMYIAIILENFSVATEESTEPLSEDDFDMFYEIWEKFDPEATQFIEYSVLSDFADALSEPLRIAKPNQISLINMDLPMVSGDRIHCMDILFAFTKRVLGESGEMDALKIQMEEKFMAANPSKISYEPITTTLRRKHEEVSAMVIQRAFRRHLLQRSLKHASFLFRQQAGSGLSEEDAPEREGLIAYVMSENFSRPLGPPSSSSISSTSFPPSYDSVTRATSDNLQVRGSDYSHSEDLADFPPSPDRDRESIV
Excerpt: as §1

Iks/Kv7.1 = Iks/Kv7.1 (Homo sapiens, UniProt P51787); test: In vitro ion channel function; format: cell-based; details: Iks/Kv7.1 IC50, Slowly activating K^+ delayed rectifier
Sequence of Iks/Kv7.1 (P51787 whole entry): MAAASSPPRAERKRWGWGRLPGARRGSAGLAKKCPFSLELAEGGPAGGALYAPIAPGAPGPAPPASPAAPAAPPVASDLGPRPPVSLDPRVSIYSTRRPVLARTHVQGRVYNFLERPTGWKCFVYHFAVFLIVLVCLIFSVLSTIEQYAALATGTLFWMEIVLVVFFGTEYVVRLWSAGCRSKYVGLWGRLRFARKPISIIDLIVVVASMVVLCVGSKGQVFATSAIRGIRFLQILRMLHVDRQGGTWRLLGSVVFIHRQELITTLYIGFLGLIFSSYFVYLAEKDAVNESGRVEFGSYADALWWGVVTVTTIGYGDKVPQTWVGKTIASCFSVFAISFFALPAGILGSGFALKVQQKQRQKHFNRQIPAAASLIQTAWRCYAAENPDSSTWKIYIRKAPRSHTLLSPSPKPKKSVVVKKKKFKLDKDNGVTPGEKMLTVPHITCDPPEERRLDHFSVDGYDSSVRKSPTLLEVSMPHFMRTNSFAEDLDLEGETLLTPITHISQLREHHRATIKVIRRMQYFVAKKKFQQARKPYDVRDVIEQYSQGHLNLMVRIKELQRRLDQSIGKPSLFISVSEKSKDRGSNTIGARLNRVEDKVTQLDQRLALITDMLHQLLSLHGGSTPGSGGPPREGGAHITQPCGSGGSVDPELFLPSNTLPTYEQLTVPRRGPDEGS
Excerpt: as §1

[1] = system: mammalian myeloid cell lines; test: myeloid cytotoxicity (growth inhibition); format: cell-based; details: read-out: Myeloid IC50
Experimental: In vitro toxicology. Experiments for assessing micronuclei in mouse lymphoma cells^19 myeloid cytotoxicity^20 and erythroid cytotoxicity^21 were performed as described previously.

[2] = Phase 1 study in healthy volunteers, oral suspension; format: in vivo, human
Experimental: A Phase 1 multipart study[65] in healthy adult volunteers (informed consent with males and females of non-childbearing potential) with ETX0914 was performed under approval of the AstraZeneca Innovative Medicines Safety Review Board and the United States Food and Drug Administration. ETX0914 was administered orally as an aqueous suspension containing 1% w/v povidone K29–32, 0.2% m/v sodium lauryl sulfate and 0.25% w/v glycerin. In Part A of this study, 48 healthy subjects (ranging in age from 19 to 55 years) under fasting conditions received single ascending doses of 200–4000 mg formulated ETX0914 or placebo (6:2, ETX0914:placebo). In Part B, a second set of 18 healthy subjects (ranging in age from 22 to 48 years) were randomized into two equal dosing cohorts receiving a single dose of either 1500 mg ([…]) or 3000 mg ([…]) of ETX0914 in the fasting state and 30 minutes after a meal. Safety monitoring for both Parts A and B included vital signs, electrocardiogram, continuous telemetry, safety laboratory testing (clinical chemistry, haematology and urinalysis) and adverse events monitoring. Blood samples (1 mL) were collected at 0.5, 1, 1.5, 2, 2.5, 3, 4, 5, 6, 8, 10, 12, 24, 36, 48 and 72 h post dose. Urine samples were collected during−12 to 0 hours pre-dose, and 0 to 4, 4 to 8, 8 to 12, 12 to 24, 24 to 48, and 48 to 72 h post-dose. PK parameters were separately determined for the cohorts in each of the Part A and Part B studies. Concentrations of ETX0914 in the plasma and urine were quantified by LC-MS/MS. Plasma PK parameters were calculated using Phoenix WinNonLin software.
AZD0914 was analyzed in mouse, rat, dog, monkey plasma using a qualified method which was later validated for human plasma analysis. The validated human method is described below and is representative of the approach taken in other species. AZD0914 was determined in human plasma prepared with K2EDTA as an anticoagulant. AZD0914 and an internal standard (^13C2, ^15N2 AZD0914) were extracted from plasma with tert- butyl methyl ether. After evaporating to dryness under a stream of nitrogen, the residue was reconstituted and quantitated by reverse phase HPLC-MS/MS against a standard curve from 1.00 to 5000 ng/ml. Separation was achieved using a gradient which went from 55% to 85% methanol:acetonitrile (1:1) containing 0.2% formic acid as mobile phase B and 0.2% formic acid in water as mobile phase A at a flow rate of 0.60 ml/min through a Phenomonex Gemini C18 column (50 x 2.0 mm column, […]) heated using a Shimadzu CTO-20AC set to 40 °C. AZD0914 was detected in multiple reaction monitoring (MRM) mode by positive ion electrospray ionization using a Sciex API5500 (Toronto, Canada) mass spectrometer. The ion spray voltage was set to 5500 V and turboionspray temperature was 650 °C. AZD0914 was quantitated using the MRM transition 488.2 → 348.2 using a collision energy of 29 eV. The internal standard, (^13C2, ^15N2 AZD0914), was monitored using identical conditions except for the MRM transition of 492.2 → 348.2.

[3] = hepatocyte intrinsic clearance; format: in vitro ADME; details: male, Beagle, dog hepatocytes
Excerpt: Supplement srep11827-s1.doc, table 4 | column: Beagle dog (male)

[4] = hepatocyte intrinsic clearance; format: in vitro ADME; details: female, CD-1, mouse hepatocytes
Excerpt: Supplement srep11827-s1.doc, table 4 | column: CD-1 mouse (female)

Mycoplasma genitalium = system: Mycoplasma genitalium; design: method as in ref 3 (supplement); details: 11 tested; ref 3 (supplement); cited from earlier work
MRSA ATCC33591 = test: MIC (modal, CLSI broth microdilution); format: cell-based, S. aureus; details: Staphylococcus aureus, read-out: Modal MIC
[5] = both sexes, human, plasma, oral, 3000 mg, fasting

C[C@@H]1CN2c3c(cc4c(N5C(=O)OC[C@@H]5C)noc4c3F)CC3(C(=O)NC(=O)NC3=O)[C@H]2[C@H](C)O1 [ETX0914]
MIC: S. pneumoniae ATCC49619 (S. pneumoniae ATCC49619): 0.125 µg/mL (≈ 0.256 µM) | IC50 (Ito/Kv4.3): 216 µM | IC50 (hNav1.5): > 333 µM | IC50 (Iks/Kv7.1): > 333 µM | IC50 [1]: > 100 µM | increase in AUC with high fat meal ([2]; 3000 mg): > 40% | serious adverse events ([2]; Phase 1, 200–4000 mg): No serious adverse events | mild and non-serious AEs ([2]; Phase 1, reversible in all subjects): transient dysgeusia and headache | AUC [2, 5]: 195 µg·h/mL | Cmax [2, 5]: 22900 ng/mL | Tmax ([2]; both sexes, human, plasma, oral, 3000 mg, fasting, read-out: Tmax): 2.2 h | AUC ([2]; both sexes, human, plasma, oral, 3000 mg, preceded by a high fat meal): 281 µg·h/mL | Cmax ([2]; both sexes, human, plasma, oral, 3000 mg, with food): 24000 ng/mL | Tmax ([2]; both sexes, human, plasma, oral, 3000 mg, with food, read-out: Tmax): 4 h | half-life ([2]; both sexes, human, plasma, oral, 8 to 72 hour post-dose period): 5.2 to 6.25 h | Tmax ([2]; both sexes, human, plasma, po, fasting, 200–4000 mg single oral dose, read-out: median Tmax): 1.5 to 2.26 h | oral dose excreted as parent drug in urine ([2]; both, human, urine, po): Less than 5% | margin of human AUC to NOAEL in dog ([2]; highest 4000 mg dose): 4.8 fold | margin of human AUC to NOAEL in rat ([2]; highest 4000 mg dose): 6.4 fold | margin of human Cmax to NOAEL in dog ([2]; highest 4000 mg dose): 3.7 fold | margin of human Cmax to NOAEL in rat ([2]; highest 4000 mg dose): 4.9 fold | doses at which the efficacious AUC was exceeded ([2]; human AUC0-24h versus dose): > 800 mg | hepatocyte CLint at 1 µM [3]: 3.8 µL/min/1e6 cells | hepatocyte CLint at 1 µM [4]: 7 µL/min/1e6 cells | MIC90 (Mycoplasma genitalium): 1.0^3 µg/ml | MIC Range (Mycoplasma genitalium): 0.5 to 1.0 µg/mL | MIC (MRSA ATCC33591): 0.125 µg/mL (≈ 0.256 µM)
